Laboratory results: PMC4052304, “New Benzoxazine Secondary Metabolites from an Arctic Actinomycete” (Marine Drugs, 2014)
Like-named read-outs stand apart in the source and are kept apart here.

Legend:
[1] = test system: K562 (leukemia cancer) cells; assay: Anti-proliferative activity, SRB assay, K562; format: cell-based; details: Homo sapiens, K562, 72 h, read-out: IC50, cytotoxicity against K562
Description: (§1) Cell proliferation was analyzed using the sulforhodamine B (SRB) assay. Six human cancer cell lines (HCT116, MDA-MB231, SNU638, A549, K562, and SK-HEP1 at 3 × 10^4 cells/mL) were seeded in 96-well plates at different compound concentrations before incubating at 37 °C in a humidified atmosphere with 5% CO2. After 72 h of treatment, the cells were fixed with a 10% TCA solution for 1 h before staining the cellular proteins with 0.4% SRB in 1% acetic acid. The stained cells were dissolved in 10 mM Tris buffer (pH 10.0). The effects of the compounds on cell proliferation were calculated as percentages relative to the solvent-treated control. In addition, the IC50 values were determined by nonlinear regression analysis (percent survival versus concentration).

[2] = test system: SNU638 (gastric cancer) cells; assay: Anti-proliferative activity, SRB assay, SNU638; format: cell-based; details: Homo sapiens, SNU-638, 72 h, read-out: IC50, cytotoxicity against SNU638
Description: as §1

[3] = test system: MDA-MB231 (breast cancer) cells; assay: Anti-proliferative activity, SRB assay, MDA-MB231; format: cell-based; details: Homo sapiens, MDA-MB-231, 72 h, read-out: IC50, cytotoxicity against MDA-MB231
Description: as §1

[4] = target: Candida albicans isocitrate lyase (ICL) (Candida albicans, UniProt Q9P8Q7); assay: Inhibition of the isocitrate lyase (ICL) activity assay; format: biochemical; details: for inhibitory activity towards ICL (in words): even at high concentrations (100 μg/mL)
Description: The formation of glyoxylate phenylhydrazone in the presence of phenylhydrazine and isocitrate was measured spectrophotometrically at 324 nm. The enzyme reaction mixture (1 mL) included 1.27 mM threo-DS (+) isocitrate, 3.75 mM MgCl2, 4.1 mM phenylhydrazine, 20 mM sodium phosphate buffer (pH 7.0), and 2.5 μg/mL purified C. albicans ICL. The reaction was performed at 37 °C for 30 min, and the protein concentration was measured using the Bradford method and a Bio-Rad protein assay Kit (Bio-Rad, Alfred Nobel Dr. Hercules, CA, USA) with bovine serum albumin as a standard.

[5] = test system: SK-HEP1 (liver cancer) cells; assay: Anti-proliferative activity, SRB assay, SK-HEP1; format: cell-based; details: Homo sapiens, SK-HEP1, 72 h, read-out: IC50, cytotoxicity against SK-HEP1
Description: as §1

[6] = test system: HCT116 (colon cancer) cells; assay: Anti-proliferative activity, SRB assay, HCT116; format: cell-based; details: Homo sapiens, HCT-116, 72 h, read-out: IC50, cytotoxicity against HCT116
Description: as §1

A549 (lung cancer) cells = assay: Anti-proliferative activity, SRB assay, A549; format: cell-based; details: Homo sapiens, A549, 72 h, read-out: IC50, cytotoxicity against A549
Description: as §1

[7] = test system: HCT116, A549, SNU638, SK-HEP1, K562 and MDA-MB231 human carcinoma cell lines; assay: Anti-proliferative activity, SRB assay, panel of six human carcinoma cell lines; format: cell-based; details: 72 h
Description: as §1

[8] = purified C. albicans ICL 2.5 μg/mL, 37 °C, 30 min, pH 7.0, read-out: IC50, inhibition of Candida albicans isocitrate lyase (ICL)

Candida albicans isocitrate lyase (ICL), sequence (Q9P8Q7 whole entry): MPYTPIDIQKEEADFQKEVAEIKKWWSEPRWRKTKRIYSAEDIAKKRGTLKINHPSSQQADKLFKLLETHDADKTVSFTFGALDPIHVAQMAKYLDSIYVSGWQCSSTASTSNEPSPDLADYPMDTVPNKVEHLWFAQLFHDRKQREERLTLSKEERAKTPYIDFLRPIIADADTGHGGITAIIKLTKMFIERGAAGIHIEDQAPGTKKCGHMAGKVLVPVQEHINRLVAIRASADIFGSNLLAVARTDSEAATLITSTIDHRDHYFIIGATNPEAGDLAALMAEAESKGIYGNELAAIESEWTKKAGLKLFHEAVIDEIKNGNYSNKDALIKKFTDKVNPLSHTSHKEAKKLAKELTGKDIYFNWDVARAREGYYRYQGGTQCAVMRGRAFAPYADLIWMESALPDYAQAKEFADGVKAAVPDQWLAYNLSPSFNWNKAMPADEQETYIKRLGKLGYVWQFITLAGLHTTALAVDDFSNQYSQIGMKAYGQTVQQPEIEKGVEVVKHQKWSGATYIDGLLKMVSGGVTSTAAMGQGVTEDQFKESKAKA

| SMILES | IC50 [1] [µM] | IC50 [2] [µM] | IC50 [3] [µM] | IC50 [4] [µM] | IC50 [5] [µM] | IC50 [6] [nM] | IC50 (A549 (lung cancer) cells) [µM] | inhibitory activity towards ICL (in words) [4] | IC50 [4, 8] [µM] | other results |
| --- | --- | --- | --- | --- | --- | --- | --- | --- | --- | --- |
| C=C1Oc2cc(OC)cc(C(=O)O[C@H]3COC(=O)C[C@H](N)c4cc(O)c(c(Cl)c4)O[C@@H]4c5ccc3cc5C3=CC=C[C@@]34O[C@@H]3OC(C)(C)[C@@H](N(C)C)[C@@H](O)[C@H]3O)c2NC1=O [Compound 3, C-1027 chromophore-III] | 4.8 | 1.1 | 44 | 25.6 | 0.9 | 600 | 2.2 |  |  |  |
| CC(=O)N[C@H]1CC(=O)OC[C@H](O)c2ccc3c(c2Cl)C2=CC=C[C@]2(O[C@@H]2OC(C)(C)[C@@H](N(C)C)[C@@H](O)[C@H]2O)[C@@H]3Oc2c(O)cc1cc2Cl [Compound 4, fijiolide A] |  |  |  |  |  |  |  | no activity |  |  |
| O=C(O)CC[N+](=O)[O-] [3-nitropropionic acid, reference compound] |  |  |  |  |  |  |  |  | 35.2 |  |
| C=C1Oc2cc(OC)cc(C(=O)O[C@H]3COC(=O)C[C@H](N)c4cc(O)c(c(Cl)c4)O[C@@H]4c5ccc3c(Cl)c5C3=CC=C[C@@]34O[C@@H]3OC(C)(C)[C@@H](N(C)C)[C@@H](O)[C@H]3O)c2NC1=O [Compound 2, C-1027 chromophore-V] | 25.1 | 9.8 | 0.9 | 37.9 | 7.9 | 2700 | 14.7 |  |  |  |
| C=C1Oc2cc(OC)cc(C(=O)OC[C@H]3O[C@H](OC[C@H]4O[C@H](O)[C@H](O)[C@@H](O)[C@@H]4O)[C@H](O)[C@@H](O)[C@@H]3O)c2NC1=O [Compound 1, arcticoside] |  |  |  |  |  |  |  |  | 30.4 | cytotoxicity against human carcinoma cell lines (in words) [7]: did not display notable inhibitory activity |
| CN(C)[C@H]1[C@@H](O)[C@@H](O)[C@H](O[C@]23C=CC=C2c2c4ccc(c2Cl)[C@@H](O)COC(=O)C[C@H](N)c2cc(O)c(c(Cl)c2)O[C@H]43)OC1(C)C [Compound 5, fijiolide B] |  |  |  |  |  |  |  | no activity |  |  |
